{"source": "patent US5962533A", "about": "“Hydroxy polyamines” (priority 1996, dated 1999)", "key": {"[1]": {"test_system": "castor oil-induced diarrhea", "experiment": "Castor oil-induced diarrhea", "type": "in vivo, rat", "description": "Castor Oil-Induced Diarrhea. Male Sprague-Dawley rats (350-400 g) were fasted overnight in hanging wire cages and allowed free access to water."}, "[2]": {"experiment": "Chronic toxicity, one dose per day for five days", "type": "in vivo", "procedure": "In the chronic toxicity regimen, mice were administered the polyamine analogue as one dose per day for five days. Appetite, weight and overall physical appearance were recorded at the time of each injection. After the treatment regimen had been completed, the animals were observed an additional 10 days. The chronic toxicity dosing regimen was set up so that at least one test group was presented with a high fraction of lethalities."}, "L1210 cells [3]": {"test_system": "L1210 cells", "experiment": "Polyamine pool analysis in analogue-treated L1210 cells (HPLC)", "type": "cell-based, Murine", "conditions": "for PUT level relative to untreated controls / SPD level relative to untreated controls / SPM level relative to untreated controls: L1210 cells, control = 100%", "procedure": "Polyamine Pool Analysis. While in logarithmic growth, cells were treated with the polyamine derivatives. […] Each supernatant was frozen at -20° C. until analysis by HPLC."}, "[4]": {"experiment": "Acute toxicity, single intraperitoneal injection", "conditions": "325 mg/kg intraperitoneal, five female CD-1 mice"}, "[5]": {"experiment": "Metabolism of (HO)2 DEHSPM v. DEHSPM in mouse liver and kidney (HPLC)", "type": "in vivo", "procedure": "Metabolism of (HO)2 DEHSPM v. DEHSPM in Mouse Liver and Kidney. […] In ease case, animals were sacrificed for HPLC analysis one day after the final dose.\nHPLC Analysis of Polyamines. Various tissues including the liver and kidney were prepared for HPLC analysis of polyamine content. In order to facilitate their handling, the organs were submerged in liquid nitrogen. Once frozen and weighed, the tissues were homogenized (Tissuemizer, Tekmar, Cincinnati, Ohio) in 1.2N perchloric acid (containing 1,7-diaminoheptane internal standard) in a 1:20 (w/v) ratio. The tissue homogenates were then freeze-thawed three times and stored in a -70° C. freezer until HPLC analysis was performed.\nEach chromatographic assay included calibration standards which were treated in the same manner as the samples. […] The concentration of each polyamine was calculated from the peak area by calibration curves obtained by non-weighted least squares linear regression. Peak area and linear regression calculations were performed on a Macintosh Centris 650 with Rainin Dynamax HPLC Method Manager software (Rainin Instrument Co., Ridgefield, N.J.)."}, "L1210 cells [6]": {"test_system": "L1210 cells", "experiment": "L1210 growth inhibition, IC50 determinations", "type": "cell-based, Murine", "procedure": "IC50 Determinations. Cells were grown in 25 cm^2 tissue culture flasks in a total volume of 10 ml. Cultures were treated while in logarithmic growth (0.5-1.0×10^5 cells/ml) with the polyamine derivative diluted in sterile water and filtered through a 0.2 μm filter.\nAfter the indicated time periods, cells were removed from the incubator for counting. Cell number was determined by electronic particle counting (Model ZF coulter counter, Coulter Electronics, Hialeah, Fla.) and confirmed periodically with hemocytometer measurements.\nThe percentage of control growth was determined as follows: [formula]"}, "[7]": {"test_system": "polyamine transport apparatus", "experiment": "Competition with radiolabeled spermidine for uptake into L1210 cells (Ki)", "type": "cell-based, Murine", "conditions": "L1210 cells, estimated from Lineweaver-Burke plots, read-out: Ki, [3H]-spermidine transport", "procedure": "The same cell line was utilized to evaluate the tetraamines's competition with radiolabeled spermidine for the polyamine uptake apparatus (Ki). The Ki values here are the concentrations of drugs required to inhibit the uptake of radioactive spermidine transport by 50% (Table 1).\nUptake Determinations. The polyamine derivatives were studied for their ability to compete with [^3 H]SPD or [^14 C]SPD for uptake into L1210 leukemia cells in vitro. Cell suspensions were incubated in 1 ml of RPMI-1640 containing 1, 2, 4, 6, 8 and 10 μm radiolabeled SPD alone or with the additional presence of 10, 25 and 50 μm polyamine analogue for 20 minutes at 37° C. At the end of the incubation period, tubes were centrifuged at 900 g for 5 minutes at 0-4° C. The pellet was washed twice with 5 ml of cold RPMI-1640 containing 1 mm SPD, dissolved in 200 μl of 1N NaOH at 60° C. for 1 hour, and neutralized with 1N HCl. The material was transferred to a vial for scintillation counting."}, "[8]": {"conditions": "3.5 μm analogue, listed as (OH)2 DEHSPM"}, "[9]": {"conditions": "24 h after regimen, normalized for 30 g mouse"}, "[10]": {"conditions": "liver and kidneys, 24 h after regimen, 30 g mouse"}, "[11]": {"conditions": "mouse, one day after subchronic equimolar i.p. regimen"}}, "note": "Several values for one entry are separate records, joined by “and”; a condition that tells them apart may be missing. Equal entries are not always repeated. Structures can show the parent of a compound that is named as a salt. Where two headings read alike, the source gives them in different places.", "data": [{"smiles": "CCNCC[C@@H](O)CNCCCCNC[C@H](O)CCNCC", "note": "[(HO)2 DEHSPM, N^1,N^14 -Diethyl-3(R),12(R)-dihydroxyhomospermine tetrahydrochloride]", "values": [{"measurement": "prevention of castor oil-induced diarrhea", "setting": "[1]; 1 mg/kg, rat", "value": "not an effective anti-diarrheal agent"}, {"measurement": "prevention of castor oil-induced diarrhea", "setting": "[1]; 2.5 mg/kg, rat, six hour observation", "value": "partially effective"}, {"measurement": "prevention of castor oil-induced diarrhea", "setting": "[1]; 5 mg/kg subcutaneous, rat, six hour assay", "value": "as effective as DEHSPM at preventing diarrhea"}, {"measurement": "prevention of castor oil-induced diarrhea", "setting": "[1]; 18 kg/mg, rat", "value": "effectively prevented the onset of diarrhea"}, {"measurement": "minimal effective dose", "setting": "[1]; Rattus norvegicus, sc, read-out: minimum effective dose for prevention of diarrhea", "value": 5, "unit": "mg/kg"}, {"measurement": "stool output / diarrhea during 6 hour assay (FIG. 8)", "setting": "[1]; subcutaneous injection 30 minutes before castor oil 5 ml/kg, rat", "value": "virtually no stool output"}, {"measurement": "# deaths/# animals", "setting": "[2]; 70 mg/kg per day×5 days", "value": "0/5"}, {"measurement": "# deaths/# animals", "setting": "[2]; 80 mg/kg per day×5 days", "value": "0/5"}, {"measurement": "# deaths/# animals", "setting": "[2]; 90 mg/kg per day×5 days", "value": "0/10"}, {"measurement": "# deaths/# animals", "setting": "[2]; 100 mg/kg per day×5 days", "value": "1/5"}, {"measurement": "# deaths/# animals", "setting": "[2]; 120 mg/kg per day×5 days", "value": "2/5"}, {"measurement": "deaths", "setting": "[2]; 20, 40 and 60 mg/kg per day×5 days, groups of six animals", "value": "No deaths"}, {"measurement": "LD40", "setting": "[2]; mice", "value": 120, "unit": "mg/kg per day×5 days"}, {"measurement": "necropsy conclusion in severely affected animals", "setting": "[2]; mouse, in vivo", "value": "potently blocks gastric transport"}, {"measurement": "LD50", "setting": "[2]; mouse, in vivo, mice, subchronic regimen, read-out: LD50 estimated from the slope of the toxicity curve", "value": 130, "unit": "mg/kg"}, {"measurement": "PUT level relative to untreated controls", "setting": "L1210 cells [3]; 0.7 μm analogue", "value": 45, "unit": "%"}, {"measurement": "SPD level relative to untreated controls", "setting": "L1210 cells [3]; 0.7 μm analogue", "value": 57, "unit": "%"}, {"measurement": "SPM level relative to untreated controls", "setting": "L1210 cells [3]; 0.7 μm analogue", "value": 96, "unit": "%"}, {"measurement": "PUT level relative to untreated controls", "setting": "L1210 cells [3]; 3.5 μm analogue", "value": "below detectable limits"}, {"measurement": "SPD level relative to untreated controls", "setting": "L1210 cells [3]; 3.5 μm analogue", "value": "below detectable limits"}, {"measurement": "SPM level relative to untreated controls", "setting": "L1210 cells [3]; 3.5 μm analogue", "value": 60, "unit": "%"}, {"measurement": "PUT level relative to untreated controls", "setting": "L1210 cells [3]; [8]", "value": 0, "unit": "%"}, {"measurement": "SPD level relative to untreated controls", "setting": "L1210 cells [3]; [8]", "value": 0, "unit": "%"}, {"measurement": "SPM level relative to untreated controls", "setting": "L1210 cells [3]; [8]", "value": 68, "unit": "%"}, {"measurement": "N-deethylation by L1210 cells", "setting": "L1210 cells [3]; in vitro conditions", "value": "do not N-deethylate"}, {"measurement": "deaths after single dose", "setting": "[4]", "value": "Three of the five animals died"}, {"measurement": "% of total dose present as total drug + metabolite, Kidneys", "setting": "[5]; [9]", "value": 4.04, "unit": "%"}, {"measurement": "% of total dose present as total drug + metabolite, Liver", "setting": "[5]; [9]", "value": 5.96, "unit": "%"}, {"measurement": "% of total dose present as unmetabolized parent drug, Kidneys", "setting": "[5]; [9]", "value": ".357 ± 0.34%"}, {"measurement": "% of total dose present as unmetabolized parent drug, Liver", "setting": "[5]; [9]", "value": "3.39 ± 0.48", "unit": "%"}, {"measurement": "Amount of total dose present as dideethylated metabolite HSPM/(HO)2 HSPM, Kidneys", "setting": "[5]; [9]", "value": 0.030, "unit": "µmol"}, {"measurement": "Amount of total dose present as dideethylated metabolite HSPM/(HO)2 HSPM, Liver", "setting": "[5]; [9]", "value": 0.166, "unit": "µmol"}, {"measurement": "Amount of total dose present as total drug + metabolite, Kidneys", "setting": "[5]; [9]", "value": 0.261, "unit": "µmol"}, {"measurement": "Amount of total dose present as total drug + metabolite, Liver", "setting": "[5]; [9]", "value": 0.385, "unit": "µmol"}, {"measurement": "Amount of total dose present as unmetabolized parent drug, Kidneys", "setting": "[5]; [9]", "value": 0.231, "unit": "µmol"}, {"measurement": "Amount of total dose present as unmetabolized parent drug, Liver", "setting": "[5]; [9]", "value": 0.219, "unit": "µmol"}, {"measurement": "% of total dose present as total drug + metabolite, Both Tissues", "setting": "[5]; [10]", "value": 10.01, "unit": "%"}, {"measurement": "% of total dose present as unmetabolized parent drug, Both Tissues", "setting": "[5]; [10]", "value": 6.96, "unit": "%"}, {"measurement": "Amount of total dose present as dideethylated metabolite HSPM/(HO)2 HSPM, Both Tissues", "setting": "[5]; [10]", "value": 0.196, "unit": "µmol"}, {"measurement": "Amount of total dose present as total drug + metabolite, Both Tissues", "setting": "[5]; [10]", "value": 0.646, "unit": "µmol"}, {"measurement": "Amount of total dose present as unmetabolized parent drug, Both Tissues", "setting": "[5]; [10]", "value": 0.450, "unit": "µmol"}, {"measurement": "level of unchanged drug in kidney", "setting": "[5]; [11]", "value": "481±46", "unit": "nmol/g wet weight"}, {"measurement": "level of unchanged drug in liver", "setting": "[5]; [11]", "value": "83.6±11.7 nmol/g wet weight and 84±12 nmol/g wet weight"}, {"measurement": "IC50", "setting": "L1210 cells [6]; Mus musculus, L1210, 96 h, read-out: IC50 96 h, L1210 cells, 96 h", "value": 0.07, "unit": "µM"}, {"measurement": "IC50", "setting": "L1210 cells [6]; Mus musculus, read-out: IC50 48 h, L1210 cells, 48 h", "value": 0.6, "unit": "µM"}, {"measurement": "IC50", "setting": "L1210 cells [6]; read-out: IC50 96 h, L1210 cells, 96 h", "value": "0.05 to 0.09", "unit": "µM"}, {"measurement": "Ki", "setting": "[7]; listed as (OH)2 -DEHSPM", "value": 1.8, "unit": "µM"}, {"measurement": "Ki", "setting": "[7]", "value": "2 µM and 1.8 µM"}]}]}
